In patent US9180122B2, “5- or 6-substituted 3-hydroxy-2 (1 H)-pyridinones as D-amino acid oxidase (DAAO) inhibitors in therapy of diseases such as schizophrenia, cognitive disorder and pain” (Takeda Pharmaceutical Company Limited, priority 2011, dated 2015) one finds IC50 data, which are given here for 35 compounds.

Each structure is given as a SMILES string.

Sequence of Human DAAO enzyme (P14920 whole entry): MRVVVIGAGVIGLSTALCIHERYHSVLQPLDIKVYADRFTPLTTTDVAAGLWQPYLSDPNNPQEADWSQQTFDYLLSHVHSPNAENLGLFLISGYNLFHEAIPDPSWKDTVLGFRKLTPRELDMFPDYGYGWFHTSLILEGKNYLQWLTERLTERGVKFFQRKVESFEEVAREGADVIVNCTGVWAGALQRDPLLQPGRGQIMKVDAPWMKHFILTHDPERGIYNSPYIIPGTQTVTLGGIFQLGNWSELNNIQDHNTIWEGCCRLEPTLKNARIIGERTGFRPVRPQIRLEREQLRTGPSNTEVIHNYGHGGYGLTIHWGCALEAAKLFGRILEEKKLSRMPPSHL

This experiment has as its target Human DAAO enzyme (Homo sapiens (Human), UniProt P14920). In words: In Vitro DAAO Enzyme Assay (Amplex Red detection of H2O2 from D-Serine). Format: biochemical. To be noted: 10 mM D-Serine, 60 minutes at 25° C. As for the experimental part: The functional activity of compounds inhibiting the DAAO enzyme was determined by utilizing the co-product of the catalysis of D-Serine, H2O2 which can be quantitatively measured using the Amplex Red (Invitrogen) detection. Amplex® Red reagent is a colorless substrate that reacts with hydrogen peroxide (H2O2) with a 1:1 stoichiometry in the presence of […] to produce highly fluorescent resorufin (excitation/emission maxima=570/585 nm). The changes in fluorescence were monitored by a fluorescence plate reader, Envision (Perkin Elmer) and increases in DAAO activity were readily detected upon addition of D-Serine and suppression of this response observed with the application of test compounds.
The Km of D-Serine was measured for each enzyme batch to maintain consistency; this Km was used in subsequent assays.
On the day of the assay compounds were serially diluted in DMSO before being diluted 1:20 with assay buffer (20 mM Tris ph 7.4). A 5 μl portion of assay buffer was added to the wells of a 384 clear base black walled plate (Corning), 5 μl of diluted compound was then added via automated plate to plate transfer using the Bravo liquid handler (Agilent technologies) followed by 5 μl of human DAAO enzyme and then 5 μl D-Serine 50 mM was added to all but the negative control wells (final concentration of 10 mM). Finally 5 μl Amplex red reagent (Invitrogen) was added to all wells as per manufacturer's protocol. The plate was incubated for 60 minutes in the dark at 25° C. and the fluorescence in each well was measured in the Envision plate reader.
The IC50 values for compounds were determined from ten point half log scale dose-response studies and represent the concentration of compound required to […] 50% inhibition of DAAO activity in the presence of 10 mM D-Serine. Concentration response curves were generated using the average of duplicate wells for each data point and analyzed using nonlinear regression and four parameter curve fit.
Consider `O=c1[nH]cc(SCc2ccccc2)cc1O` [Example 1, 5-(Benzylsulfanyl)-3-hydroxypyridin-2(1H)-one], for which the midpoint of inhibition, the IC50, lay at 190 nM. For the compound `O=c1[nH]cc(SCc2ccc(Cl)cc2)cc1O` [Example 2, 5-[(4-Chlorobenzyl)sulfanyl]-3-hydroxypyridin-2(1H)-one], inhibition was half-maximal at 35 nM (IC50). Next, `Cc1ccc(CSc2c[nH]c(=O)c(O)c2)cc1` [Example 3, 3-Hydroxy-5-[(4-methylbenzyl)sulfanyl]pyridin-2(1H)-one]: 29 nM. Under `Cc1cccc(CSc2c[nH]c(=O)c(O)c2)c1` [Example 4, 3-Hydroxy-5-[(3-methylbenzyl)sulfanyl]pyridin-2(1H)-one] stands 240 nM; under `O=c1[nH]cc(SCc2cccc(Cl)c2)cc1O` [Example 5, 5-[(3-Chlorobenzyl)sulfanyl]-3-hydroxypyridin-2(1H)-one], 55 nM. Under `CC(Sc1c[nH]c(=O)c(O)c1)c1ccccc1` (centres unmarked) [Example 6, 3-Hydroxy-5-[(1-phenylethyl)sulfanyl]pyridin-2(1H)-one] stands 1300 nM. With `O=c1[nH]cc(SCc2ccccc2Cl)cc1O` [Example 7, 5-[(2-Chlorobenzyl)sulfanyl]-3-hydroxypyridin-2(1H)-one], the half-inhibitory concentration (IC50) was determined as 210 nM. Next, `O=c1[nH]cc(SCc2cccc(C(F)(F)F)c2)cc1O` [Example 8, 3-Hydroxy-5-{[3-(trifluoromethyl)benzyl]sulfanyl}pyridin-2(1H)-one]: 190 nM. Consider `Cc1ccccc1CSc1c[nH]c(=O)c(O)c1` [Example 9, 3-Hydroxy-5-[(2-methylbenzyl)sulfanyl]pyridin-2(1H)-one], for which it took 390 nM to reach half-maximal inhibition (IC50).

In turn, `O=c1[nH]cc(SCc2cc(F)cc(Cl)c2)cc1O` [Example 10, 5-[(3-Chloro-5-fluorobenzyl)sulfanyl]-3-hydroxypyridin-2(1H)-one] displayed an IC50 of 230 nM.

With `O=c1[nH]cc(SCc2ccc(F)cc2)cc1O` [Example 11, 5-[(4-Fluorobenzyl)sulfanyl]-3-hydroxypyridin-2(1H)-one], half-maximal inhibition (IC50) was put at 47 nM.

As for `CCc1ccc(CSc2c[nH]c(=O)c(O)c2)cc1` [Example 12, 5-[(4-Ethylbenzyl)sulfanyl]-3-hydroxypyridin-2(1H)-one], 79 nM corresponded to half-maximal inhibition (IC50). Under `O=c1[nH]cc(SCc2ccc(C(F)(F)F)nc2)cc1O` [Example 13, 3-Hydroxy-5-({[6-(trifluoromethyl)pyridin-3-yl]methyl}-sulfanyl)pyridin-2(1H)-one] stands 160 nM; under `Cc1cccnc1CSc1c[nH]c(=O)c(O)c1` [Example 14, 3-Hydroxy-5-{[(3-methylpyridin-2-yl)methyl]sulfanyl}pyridin-2(1H)-one], 1900 nM; under `Cc1noc(C)c1CSc1c[nH]c(=O)c(O)c1` [Example 15, 5-{[(3,5-Dimethyl-1,2-oxazol-4-yl)methyl]sulfanyl}-3-hydroxypyridin-2(1H)-one], 1900 nM.

The compound `Cc1nc(CSc2c[nH]c(=O)c(O)c2)co1` [Example 16, 3-Hydroxy-5-{[(2-methyl-1,3-oxazol-4-yl)methyl]sulfanyl}-pyridin-2(1H)-one] gave an IC50 of 1400 nM. `O=c1[nH]cc(SCc2ccccn2)cc1O` [Example 17, 3-Hydroxy-5-[(pyridin-2-ylmethyl)sulfanyl]pyridin-2(1H)-one] came in with a 50% inhibitory concentration (IC50) of 460 nM.

`O=c1[nH]cc(SCc2ccncc2)cc1O` [Example 18, 3-Hydroxy-5-[(pyridin-4-ylmethyl)sulfanyl]pyridin-2(1H)-one]: the half-maximal inhibitory concentration (IC50) worked out at 100 nM. In turn, `O=c1[nH]cc(SCc2ccc(Cl)cn2)cc1O` [Example 19, 5-{[(5-Chloropyridin-2-yl)methyl]sulfanyl}-3-hydroxypyridin-2(1H)-one] displayed a 50% inhibitory concentration (IC50) of 360 nM. Next, `O=c1[nH]cc(SCc2ccc(F)c(F)c2)cc1O` [Example 20, 5-[(3,4-Difluorobenzyl)sulfanyl]-3-hydroxypyridin-2(1H)-one]: 45 nM. Next, `COc1ccc(CSc2c[nH]c(=O)c(O)c2)cc1` [Example 21, 3-Hydroxy-5-[(4-methoxybenzyl)sulfanyl]pyridin-2(1H)-one]: 130 nM. Next, `O=c1[nH]cc(SCc2cccnc2)cc1O` [Example 22, 3-Hydroxy-5-[(pyridin-3-ylmethyl)sulfanyl]pyridin-2(1H)-one]: 250 nM. `Cc1ccc(CSc2c[nH]c(=O)c(O)c2)nc1` [Example 23, 3-Hydroxy-5-{[(5-methylpyridin-2-yl)methyl]sulfanyl}pyridin-2(1H)-one]: the IC50 worked out at 490 nM.

Take `O=c1[nH]cc(SCc2cnccn2)cc1O` [Example 24, 3-Hydroxy-5-[(pyrazin-2-ylmethyl)sulfanyl]pyridin-2(1H)-one]: the IC50 was 1000 nM. As to `COc1ccc(CSc2c[nH]c(=O)c(O)c2)cn1` [Example 25, 3-Hydroxy-5-{[(6-methoxypyridin-3-yl)methyl]-sulfanyl}-pyridin-2(1H)-one], the IC50 turned out to be 83 nM.

For `Cc1ccccc1CCc1c[nH]c(=O)c(O)c1` [Example 26, 3-Hydroxy-5-(2-methylphenethyl)pyridin-2(1H)-one], inhibition was half-maximal at 350 nM (IC50). Under `O=c1[nH]cc(CCc2ccccc2)cc1O` [Example 27, 3-Hydroxy-5-(2-phenylethyl)pyridin-2(1H)-one] stands 140 nM; under `Cc1cccc(CCc2c[nH]c(=O)c(O)c2)c1` [Example 28, 3-Hydroxy-5-[2-(3-methylphenyl)ethyl]pyridin-2(1H)-one], 260 nM; under `Cc1ccc(CCc2c[nH]c(=O)c(O)c2)cc1` [Example 29, 3-Hydroxy-5-[2-(4-methylphenyl)ethyl]pyridin-2(1H)-one], 52 nM. Under `O=c1[nH]cc(CCc2ccc(F)cc2)cc1O` [Example 30, 5-[2-(4-Fluorophenyl)ethyl]-3-hydroxypyridin-2(1H)-one] stands 61 nM; under `O=c1[nH]cc(CCc2cccc(F)c2)cc1O` [Example 31, 5-[2-(3-Fluorophenyl)ethyl]-3-hydroxypyridin-2(1H)-one], 130 nM; under `O=c1[nH]cc(CCc2ccccc2F)cc1O` [Example 32, 5-[2-(2-Fluorophenyl)ethyl]-3-hydroxypyridin-2(1H)-one], 170 nM. Under `O=c1[nH]cc(S(=O)(=O)Cc2ccccc2)cc1O` [Example 33, 5-(Benzylsulfonyl)-3-hydroxypyridin-2(1H)-one] stands 490 nM; under `O=c1[nH]cc(SCc2cccc(F)c2)cc1O` [Example 34, 5-[(3-Fluorobenzyl)sulfanyl]-3-hydroxypyridin-2(1H)-one], 130 nM. In turn, `O=c1[nH]c(SCc2ccccc2)ccc1O` [Example 35, 6-(benzylsulfanyl)-3-hydroxypyridin-2(1H)-one] yielded an IC50 of 1400 nM.
